A short description of the assay: anaesthetic activity tests (intravenous administration). Format: in vivo. Conditions: compound and salts. From the text:
In the tests we have carried out, the compounds of the invention have been shown generally to be good anaesthetics, usually giving instantaneous induction of anaesthesia when administered intravenously. […] The compounds of the invention are of use for inducing anaesthesia which is to be maintained for example by an inhalation anaesthetic, such as ether, halothane, nitrous oxide or trichloroethylene. The compounds may also be capable of maintaining anaesthesia to a sufficient degree to enable surgical operations to be conducted without the aid of an inhalation anaesthetic, the anaesthesia being maintained if necessary by repeated or continuous administration. The compounds may have other desirable central nervous system depressant activities, for example they may be of use as sedatives.

Turning to `CCO[C@H]1C[C@@]2(C)[C@@H](CC[C@@H]3[C@@H]2[C@@H](OC(=O)CNC(C)CC(C)C)C[C@]2(C)[C@@H](C(C)=O)CC[C@@H]32)C[C@@H]1O` (stereo partly drawn) [compound 29, 2β-ethoxy-3α-hydroxy-11β-N-1',3'-dimethylbutylaminoacetoxy-5α-pregnan-20-one], the “activity shown in our tests (preference grade)” value is recorded as “particularly preferred on account of the activity shown in our tests”.

These data come from US4192871A, “Chemical compounds” (Glaxo Laboratories Limited, priority 1976, dated 1980).
